Measurements as given in patent EP2150620B1, “Method for preparing C-6 phosphorylated D-aldohexoses and C-6 phosphorylated D-aldohexose derivatives, and new C-6 phosphorylated D-aldohexose derivatives” (Libragen, priority 2007, dated 2008).
Where two headings read alike, the source gives them in different places.

Columns and labels:
[1] = biological target: polyphosphate-glucose phosphotransferase (Mycobacterium tuberculosis, UniProt P9WIN1); conditions: cited from earlier work; for Ki: read-out: Ki (ATP inhibits at high concentration)
[2] = tested on: polyphosphate-glucose phosphotransferase; conditions: cited from earlier work; for inhibition of the enzyme: donor ATP; for Km: pH 7.5, 30°C
[3] = tested on: polyphosphate-glucose phosphotransferase activity; assay: C-6 phosphorylation of acceptors with polyphosphate by an enzymatic extract, detected by thin layer chromatography (Examples 1 and 2); conditions: Example 2; same synthesis and detection conditions as Example 1
[4] = tested on: polyphosphate-glucose phosphotransferase; conditions: acceptor D-glucose; label is the phosphate donor; Propionibacterium arabinosum enzyme; cited from earlier work
[5] = tested on: polyphosphate-glucose phosphotransferase; conditions: acceptor glucose; cited from earlier work
[6] = tested on: polyphosphate-glucose phosphotransferase; conditions: cited from earlier work; for activity as phosphoryl acceptor: Arthrobacter sp. strain KM, irrespective of the phosphoryl donor, polyphosphate or ATP
[7] = tested on: polyphosphate-glucose phosphotransferase; conditions: donor ATP, acceptor D-glucose; cited from earlier work
[8] = tested on: polyphosphate-glucose phosphotransferase activity; assay: C-6 phosphorylation with enzymatic extracts of other Mycobacterium strains (Example 3); conditions: all the enzymatic preparations (five strains); acceptor 150 mM; 24 hours at 30°C
Description: The bacterial strains used are the followings: • Mycobacterium phlei ATCC 11758, • Mycobacterium smegmatis DSMZ 43465 (equivalent to ATCC 607), • Mycobacterium smegmatis ATCC 607 (equivalent to DSMZ 43465) • Mycobacterium smegmatis ATCC 700084 (or mc^2 155) • Mycobacterium sp DSMZ 2966 (equivalent to NRRL B-3683)

rat brain hexokinase = biological target: T1, rat brain hexokinase (Rattus norvegicus, UniProt P05708); conditions: relative to glucose 6-phosphate; cited from earlier work
T1 sequence (P05708 1-918): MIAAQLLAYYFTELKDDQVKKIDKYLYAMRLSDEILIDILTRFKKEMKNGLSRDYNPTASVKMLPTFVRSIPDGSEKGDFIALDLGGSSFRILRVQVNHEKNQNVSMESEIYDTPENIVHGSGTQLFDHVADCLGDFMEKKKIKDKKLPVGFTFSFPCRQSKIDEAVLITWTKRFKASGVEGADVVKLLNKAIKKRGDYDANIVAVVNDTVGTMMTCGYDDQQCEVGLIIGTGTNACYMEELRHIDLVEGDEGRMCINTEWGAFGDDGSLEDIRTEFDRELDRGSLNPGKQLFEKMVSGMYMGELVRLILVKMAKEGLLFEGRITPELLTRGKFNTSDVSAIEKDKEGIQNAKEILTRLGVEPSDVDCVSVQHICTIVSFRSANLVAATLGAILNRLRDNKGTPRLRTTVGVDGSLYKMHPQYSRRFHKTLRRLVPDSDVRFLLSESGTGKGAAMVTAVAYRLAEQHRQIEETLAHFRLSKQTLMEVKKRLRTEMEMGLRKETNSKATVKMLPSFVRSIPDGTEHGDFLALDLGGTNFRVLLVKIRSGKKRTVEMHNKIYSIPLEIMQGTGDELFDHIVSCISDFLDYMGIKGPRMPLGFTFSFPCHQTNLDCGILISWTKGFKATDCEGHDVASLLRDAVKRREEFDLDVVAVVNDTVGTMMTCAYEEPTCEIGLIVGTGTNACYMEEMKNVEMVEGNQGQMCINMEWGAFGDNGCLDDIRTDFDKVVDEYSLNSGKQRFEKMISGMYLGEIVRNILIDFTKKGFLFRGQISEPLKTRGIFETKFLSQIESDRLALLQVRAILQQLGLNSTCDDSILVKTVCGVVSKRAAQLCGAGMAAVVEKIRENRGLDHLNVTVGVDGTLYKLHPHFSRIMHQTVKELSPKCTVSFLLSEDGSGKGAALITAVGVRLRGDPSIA

[9] = donor polyphosphate, acceptor D-glucose

Sequence of polyphosphate-glucose phosphotransferase (Mycobacterium tuberculosis, UniProt P9WIN1) (P9WIN1 whole entry): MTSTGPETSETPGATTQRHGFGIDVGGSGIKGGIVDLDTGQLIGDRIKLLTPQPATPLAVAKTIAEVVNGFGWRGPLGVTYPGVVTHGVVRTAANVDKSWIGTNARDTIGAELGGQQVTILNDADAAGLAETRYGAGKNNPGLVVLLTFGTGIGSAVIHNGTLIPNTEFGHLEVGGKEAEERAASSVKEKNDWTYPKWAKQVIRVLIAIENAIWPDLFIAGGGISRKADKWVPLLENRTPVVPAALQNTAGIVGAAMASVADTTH

O=C[C@H](O)[C@@H](O)[C@H](O)CO [D-xylose]
inhibition of the enzyme ([1]; donor ATP, acceptor D-glucose): inhibit | inhibition of the enzyme ([2]; acceptor D-glucose): inhibits

Nc1ncnc2c1ncn2[C@@H]1O[C@H](COP(=O)(O)OP(=O)(O)O)[C@@H](O)[C@H]1O [ADP]
inhibition of the enzyme ([1]; donor ATP, acceptor D-glucose): inhibit | inhibition of the enzyme ([2]; acceptor D-glucose): inhibit

O=P(O)(O)OP(=O)(O)OP(=O)(O)O [TriPoly(P)]
inhibition of the enzyme ([2]; acceptor D-glucose): inhibits

O=C[C@@H](O)[C@H](O)[C@H](O)[C@H](O)CO [D-altrose]
phosphorylation of the acceptor (new substance in the 24 hours-incubation medium) [3]: not phosphorylated

O=C[C@H](O)[C@H](O)[C@H](O)CO [D-ribose]
phosphorylation of the acceptor (new substance in the 24 hours-incubation medium) [3]: not phosphorylated

Nc1ncnc2c1ncn2[C@@H]1O[C@H](COP(=O)(O)OP(=O)(O)OP(=O)(O)O)[C@@H](O)[C@H]1O [ATP, adenosine triphosphate]
Turnover ([1]; acceptor D-glucose, label is the phosphate donor): 116 s⁻¹ | Km ([1]; pH 7.5, donor ATP): 880 µM | Ki ([1]; pH 7.5, donor ATP): 6.6 mM | Km ([1]; pH 8.6, donor ATP): 1400 µM | Ki ([1]; pH 8.6, donor ATP): 7.4 mM | Turnover [4]: Dimer: 2 x 30000 Turnover: 63 s^-1 | Turnover ([2]; acceptor D-glucose, label is the phosphate donor, Propionibacterium shermanii enzyme): 25 s⁻¹ | Km ([2]; label is the phosphate donor): 1500 µM | activity with phosphate donor [5]: No activity with ATP.

O=CC[C@@H](O)[C@H](O)[C@H](O)CO [2-deoxy-D-glucose]
activity as phosphoryl acceptor [6]: inert

O=C(CO)[C@@H](O)[C@H](O)[C@H](O)COP(=O)(O)O [Fru6P]
inhibition of the enzyme ([1]; donor ATP, acceptor D-glucose): inhibit | inhibition of the enzyme [1, 9]: inhibit

O=C[C@H](O)[C@@H](O)[C@@H](O)[C@H](O)CO [D-galactose]
activity as phosphoryl acceptor [6]: inert | phosphorylation of the acceptor (new substance in the 24 hours-incubation medium) [3]: not phosphorylated

[Cl-].[Na+] [NaCl]
inhibits above (concentration) [7]: NaCl above 100 mM inhibits. Mol. weight: 59000

Nc1ncnc2c1ncn2[C@@H]1O[C@H](COP(=O)(O)O)[C@@H](O)[C@H]1O [AMP]
inhibition of the enzyme ([1]; donor ATP, acceptor D-glucose): inhibit

O=P(O)(O)OCC1OC(OP(=O)(O)O)C(O)C(O)C1O [D-glucose-1,6-bisphosphate]
synthesis of the phosphorylated product by the enzymatic preparations [8]: could not be synthesized

O=P(O)(O)OC[C@H]1O[C@@H](S)[C@H](O)[C@@H](O)[C@@H]1O [D-glucothiose-6-phosphate]
synthesis of the phosphorylated product by the enzymatic preparations [8]: able to catalyze the synthesis

O=C[C@@H](O)[C@@H](O)[C@H](O)[C@H](O)CO [D-mannose]
activity as % of the activity with glucose ([6]; donor ATP): About 30% of the activity with glucose. | activity as % of the activity with glucose ([6]; donor polyphosphate): ~40% | Km ([6]; pH 7.0, 30°C, donor polyphosphate): 150 µM

O=C[C@H](O)[C@@H](O)[C@H](O)[C@H](S)COP(=O)(O)O [5-thioglucose 6-phosphate]
inhibition constant Ki of rat brain hexokinase, lower than that seen with glucose 6-phosphate (rat brain hexokinase): 10 fold

O=C(CO)[C@@H](O)[C@H](O)[C@H](O)CO [D-fructose]
activity as phosphoryl acceptor [6]: inert | phosphorylation of the acceptor (new substance in the 24 hours-incubation medium) [3]: not phosphorylated

O=P(O)(O)OC[C@H]1OC(O)[C@H](O)[C@@H](O)[C@@H]1O (stereo partly drawn) [Glc6P]
inhibition of the enzyme [1, 9]: inhibit | inhibition of the enzyme ([2]; acceptor D-glucose): inhibit

O=CC[C@@H](O)[C@H](O)[C@H](O)COP(=O)(O)O [2-deoxy-D-glucose-6-phosphate]
synthesis of the phosphorylated product by the enzymatic preparations [8]: able to catalyze the synthesis

O=P(O)(O)O[C@H]1O[C@H](CO)[C@@H](O)[C@H](O)[C@H]1O [α-D-glucose-1-phosphate]
phosphorylation of the acceptor (new substance in the 24 hours-incubation medium) [3]: not phosphorylated

Nc1ccn([C@@H]2O[C@H](COP(=O)(O)OP(=O)(O)OP(=O)(O)O)[C@@H](O)[C@H]2O)c(=O)n1 [CTP]
Km ([2]; label is the phosphate donor): 5900 µM
